Experimental data published in paper PMC9963398, “Discovery of New Quinolone-Based Diarylamides as Potent B-RAF^V600E/C-RAF Kinase Inhibitors Endowed with Promising In Vitro Anticancer Activity” (International Journal of Molecular Sciences, 2023).

How the values were obtained:
NCI-H226 = assay: NCI-60 five-dose SRB assay; format: cell-based; settings: Homo sapiens; NCI-H226, NSCL cancer, five-dose test
Procedure: (§1) The anticancer screening of target compounds over a full panel of 60 human cancer cell lines was carried out using Sulforhodamine B (SRB) assay at the National Cancer Institute (NCI), Bethesda, Maryland, USA, employing the standard protocol.

ACHN = assay: NCI-60 five-dose SRB assay; format: cell-based; settings: Homo sapiens, Renal cancer, five-dose test
Procedure: as §1

SR = assay: NCI-60 five-dose SRB assay; format: cell-based; settings: Homo sapiens, Leukemia, five-dose test
Procedure: as §1

NCI-H322M = assay: NCI-60 five-dose SRB assay; format: cell-based; settings: Homo sapiens, NSCL cancer, five-dose test
Procedure: as §1

M14 = assay: NCI-60 five-dose SRB assay; format: cell-based; settings: Homo sapiens; M14, Melanoma, five-dose test
Procedure: as §1

HOP-92 = assay: NCI-60 five-dose SRB assay; format: cell-based; settings: Homo sapiens; HOP-92, NSCL cancer, five-dose test
Procedure: as §1

MDA-MB-435 = assay: NCI-60 five-dose SRB assay; format: cell-based; settings: Homo sapiens; MDA-MB-435, Melanoma, five-dose test
Procedure: as §1

TK-10 = assay: NCI-60 five-dose SRB assay; format: cell-based; settings: Homo sapiens; TK-10, Renal cancer, five-dose test
Procedure: as §1

SK-MEL-5 = assay: NCI-60 five-dose SRB assay; format: cell-based; settings: Homo sapiens; SK-MEL-5, Melanoma, five-dose test
Procedure: as §1

MCF7 = assay: NCI-60 five-dose SRB assay; format: cell-based; settings: Homo sapiens; MCF7, Breast cancer, five-dose test
Procedure: as §1

RPMI-8226 = assay: NCI-60 five-dose SRB assay; format: cell-based; settings: Homo sapiens; RPMI-8226, Leukemia, five-dose test
Procedure: as §1

HL-60(TB) = assay: NCI-60 five-dose SRB assay; format: cell-based; settings: Homo sapiens, Leukemia, five-dose test
Procedure: as §1

HT29 = assay: NCI-60 five-dose SRB assay; format: cell-based; settings: Homo sapiens, HT-29; HT29, Colon cancer, five-dose test
Procedure: as §1

SF-268 = assay: NCI-60 five-dose SRB assay; format: cell-based; settings: Homo sapiens; SF-268, CNS cancer, five-dose test
Procedure: as §1

DU-145 = assay: NCI-60 five-dose SRB assay; format: cell-based; settings: Homo sapiens; DU-145, Prostate cancer, five-dose test
Procedure: as §1

SW-620 = assay: NCI-60 five-dose SRB assay; format: cell-based; settings: Homo sapiens; SW-620, Colon cancer, five-dose test
Procedure: as §1

HS 578T = assay: NCI-60 five-dose SRB assay; format: cell-based; settings: Homo sapiens, Breast cancer, five-dose test
Procedure: as §1

K-562 = assay: NCI-60 five-dose SRB assay; format: cell-based; settings: Homo sapiens, K562; K-562, Leukemia, five-dose test
Procedure: as §1

T-47D = assay: NCI-60 five-dose SRB assay; format: cell-based; settings: Homo sapiens, T47D, Breast cancer, five-dose test
Procedure: as §1

UO-31 = assay: NCI-60 five-dose SRB assay; format: cell-based; settings: Homo sapiens; UO-31, Renal cancer, five-dose test
Procedure: as §1

HCT-15 = assay: NCI-60 five-dose SRB assay; format: cell-based; settings: Homo sapiens; HCT-15, Colon cancer, five-dose test
Procedure: as §1

A549/ATCC = assay: NCI-60 five-dose SRB assay; format: cell-based; settings: Homo sapiens, NSCL cancer, five-dose test
Procedure: as §1

HCT-116 = assay: NCI-60 five-dose SRB assay; format: cell-based; settings: Homo sapiens; HCT-116, Colon cancer, five-dose test
Procedure: as §1

CAKI-1 = assay: NCI-60 five-dose SRB assay; format: cell-based; settings: Homo sapiens; CAKI-1, Renal cancer, five-dose test
Procedure: as §1

SF-539 = assay: NCI-60 five-dose SRB assay; format: cell-based; settings: Homo sapiens; SF-539, CNS cancer, five-dose test
Procedure: as §1

UACC-62 = assay: NCI-60 five-dose SRB assay; format: cell-based; settings: Homo sapiens; UACC-62, Melanoma, five-dose test
Procedure: as §1

MALME-3M = assay: NCI-60 five-dose SRB assay; format: cell-based; settings: Homo sapiens, Melanoma, five-dose test
Procedure: as §1

SNB-19 = assay: NCI-60 five-dose SRB assay; format: cell-based; settings: Homo sapiens; SNB-19, CNS cancer, five-dose test
Procedure: as §1

BT-549 = assay: NCI-60 five-dose SRB assay; format: cell-based; settings: Homo sapiens; BT-549, Breast cancer, five-dose test
Procedure: as §1

NCI-H522 = assay: NCI-60 five-dose SRB assay; format: cell-based; settings: Homo sapiens; NCI-H522, NSCL cancer, five-dose test
Procedure: as §1

SF-295 = assay: NCI-60 five-dose SRB assay; format: cell-based; settings: Homo sapiens; SF-295, CNS cancer, five-dose test
Procedure: as §1

SK-MEL-2 = assay: NCI-60 five-dose SRB assay; format: cell-based; settings: Homo sapiens; SK-MEL-2, Melanoma, five-dose test
Procedure: as §1

MOLT-4 = assay: NCI-60 five-dose SRB assay; format: cell-based; settings: Homo sapiens; MOLT-4, Leukemia, five-dose test
Procedure: as §1

KM12 = assay: NCI-60 five-dose SRB assay; format: cell-based; settings: Homo sapiens; KM12, Colon cancer, five-dose test
Procedure: as §1

LOX IMVI = assay: NCI-60 five-dose SRB assay; format: cell-based; settings: Homo sapiens, Melanoma, five-dose test
Procedure: as §1

HOP-62 = assay: NCI-60 five-dose SRB assay; format: cell-based; settings: Homo sapiens; HOP-62, NSCL cancer, five-dose test
Procedure: as §1

IGROV1 = assay: NCI-60 five-dose SRB assay; format: cell-based; settings: Homo sapiens, IGROV-1; IGROV1, Ovarian cancer, five-dose test
Procedure: as §1

B-RAF^V600E = molecular target: T1, B-RAF^V600E (Homo sapiens, UniProt P15056, V600E); assay: HotSpot kinase assay (RBC), B-RAF^V600E; format: biochemical; settings: 10 µM ATP, 10-dose singlicate IC50 mode
T1 construct: purchased Reaction Biology Corporation (RBC), Kinase HotSpot service
T1 sequence (P15056 whole entry V600E): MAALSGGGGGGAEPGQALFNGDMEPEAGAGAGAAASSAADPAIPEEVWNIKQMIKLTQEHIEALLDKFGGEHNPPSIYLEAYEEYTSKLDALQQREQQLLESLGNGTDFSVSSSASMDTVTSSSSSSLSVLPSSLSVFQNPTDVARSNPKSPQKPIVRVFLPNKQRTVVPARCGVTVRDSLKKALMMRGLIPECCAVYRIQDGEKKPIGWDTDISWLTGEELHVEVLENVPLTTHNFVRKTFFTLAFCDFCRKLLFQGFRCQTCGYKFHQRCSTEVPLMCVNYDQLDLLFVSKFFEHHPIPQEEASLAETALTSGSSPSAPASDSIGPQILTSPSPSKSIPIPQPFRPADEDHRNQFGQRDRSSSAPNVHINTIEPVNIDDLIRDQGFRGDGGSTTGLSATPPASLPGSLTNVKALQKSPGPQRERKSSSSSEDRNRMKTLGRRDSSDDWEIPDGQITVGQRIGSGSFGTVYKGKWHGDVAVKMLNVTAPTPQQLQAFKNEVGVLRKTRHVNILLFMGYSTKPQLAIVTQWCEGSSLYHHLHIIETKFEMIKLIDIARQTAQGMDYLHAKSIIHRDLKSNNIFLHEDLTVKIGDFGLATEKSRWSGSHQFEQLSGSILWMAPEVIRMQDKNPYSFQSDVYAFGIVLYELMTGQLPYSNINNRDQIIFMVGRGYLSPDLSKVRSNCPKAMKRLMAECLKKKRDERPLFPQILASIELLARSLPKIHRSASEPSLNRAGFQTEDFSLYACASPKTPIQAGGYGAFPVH

C-RAF = C-RAF (Homo sapiens, UniProt P04049); assay: HotSpot kinase assay (RBC), C-RAF; settings: IC50 C-RAF, 10 µM ATP, 10-dose singlicate IC50 mode
C-RAF, sequence (P04049 whole entry): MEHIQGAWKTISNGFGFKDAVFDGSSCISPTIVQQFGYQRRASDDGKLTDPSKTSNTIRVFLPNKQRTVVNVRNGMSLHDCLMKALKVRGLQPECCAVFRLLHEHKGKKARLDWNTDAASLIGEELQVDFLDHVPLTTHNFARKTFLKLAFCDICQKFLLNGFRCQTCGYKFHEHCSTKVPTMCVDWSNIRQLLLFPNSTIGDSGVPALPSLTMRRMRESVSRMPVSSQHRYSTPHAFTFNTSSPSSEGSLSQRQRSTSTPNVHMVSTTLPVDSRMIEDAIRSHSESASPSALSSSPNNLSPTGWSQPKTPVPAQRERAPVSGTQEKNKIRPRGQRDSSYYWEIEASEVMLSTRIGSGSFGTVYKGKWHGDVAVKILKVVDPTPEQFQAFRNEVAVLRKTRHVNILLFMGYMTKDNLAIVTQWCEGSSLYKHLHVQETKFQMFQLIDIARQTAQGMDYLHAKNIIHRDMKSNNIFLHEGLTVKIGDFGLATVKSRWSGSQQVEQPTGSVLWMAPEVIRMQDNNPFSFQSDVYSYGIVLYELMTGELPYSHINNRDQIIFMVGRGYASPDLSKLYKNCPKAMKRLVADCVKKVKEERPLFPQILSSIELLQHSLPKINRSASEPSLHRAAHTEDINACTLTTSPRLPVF
Source text: Reaction Biology Corporation (RBC) Kinase HotSpotSM service was utilized for cell-free biochemical kinase evaluation of the target compounds according to the reported assay protocol [46].

MDA-MB-468 = assay: cells; settings: Homo sapiens
Procedure: as §1

PC-3 = assay: cells; settings: Homo sapiens
Procedure: as §1

MDA-MB-231/ATCC = assay: cells; settings: Homo sapiens
Procedure: as §1

In the case of `CCN1CCN(Cc2ccc(C(=O)Nc3cccc(Nc4ccc5c(OC)cccc5n4)c3)cc2C(F)(F)F)CC1` [Compound 14c, 4-((4-ethylpiperazin-1-yl)methyl)-N-(3-((5-methoxyquinolin-2-yl)amino)phenyl)-3-(trifluoromethyl)benzamide], the GI50 (NCI-H226) is reported as 5.53 µM, the GI50 (ACHN) is reported as 1.85 µM and the GI50 (SR) is reported as 1.87 µM. The GI50 (NCI-H322M) was 3.5 µM, the GI50 (M14) was 1.47 µM and the GI50 (HOP-92) was 1.58 µM. For the same compound, the GI50 (MDA-MB-435) was 1.36 µM, the GI50 (TK-10) was 8.67 µM and the GI50 (SK-MEL-5) was 1.45 µM. It also gave a GI50 (MCF7) of 1.5 µM, a GI50 (RPMI-8226) of 2.24 µM and a GI50 (HL-60(TB)) of 1.57 µM. The GI50 (HT29) was 1.76 µM, the GI50 (SF-268) was 2.17 µM and the GI50 (DU-145) was 2.55 µM. The GI50 (SW-620) was 1.45 µM, the GI50 (HS 578T) was 1.96 µM and the GI50 (K-562) was 2.11 µM. The GI50 (T-47D) was 2.11 µM, the GI50 (UO-31) was 2.33 µM and the GI50 (HCT-15) was 1.58 µM. The GI50 (A549/ATCC) was 2.5 µM, the GI50 (HCT-116) was 1.45 µM and the GI50 (CAKI-1) was 1.46 µM. The GI50 (SF-539) was 1.37 µM, the GI50 (UACC-62) was 1.53 µM and the GI50 (MALME-3M) was 1.44 µM. The GI50 (SNB-19) was 1.65 µM, the GI50 (BT-549) was 5.35 µM and the GI50 (NCI-H522) was 1.7 µM. It also gave a GI50 (SF-295) of 1.52 µM, a GI50 (SK-MEL-2) of 10.7 µM and a GI50 (MOLT-4) of 1.23 µM. The GI50 (KM12) was 2.2 µM, the GI50 (LOX IMVI) was 1.45 µM and the GI50 (HOP-62) was 3.67 µM. It also gave a GI50 (IGROV1) of 3.09 µM, an IC50 (B-RAF^V600E) of 0.619 ± 0.0027 µM and an IC50 (C-RAF) of 0.182 ± 0.0152 µM. For the same compound, the GI50 (MDA-MB-468) was 1.6 µM, the GI50 (PC-3) was 2.14 µM and the GI50 (MDA-MB-231/ATCC) was 1.54 µM.
With `COc1cccc2nc(Nc3ccc(F)c(NC(=O)c4ccc(CN5CCN(C)CC5)c(C(F)(F)F)c4)c3)ccc12` [Compound 15a, N-(2-fluoro-5-((5-methoxyquinolin-2-yl)amino)phenyl)-4-((4-methylpiperazin-1-yl)methyl)-3-(trifluoromethyl)benzamide] the GI50 (NCI-H226) was 11.1 µM, the GI50 (ACHN) was 16.5 µM and the GI50 (SR) was 9.83 µM. For the same compound, the GI50 (NCI-H322M) was 15.2 µM, the GI50 (M14) was 13.1 µM and the GI50 (HOP-92) was 6.64 µM. For the same compound, the GI50 (MDA-MB-435) was 15.1 µM, the GI50 (TK-10) was 16.4 µM and the GI50 (SK-MEL-5) was 15.5 µM. For the same compound, the GI50 (MCF7) was 12.3 µM, the GI50 (RPMI-8226) was 9.3 µM and the GI50 (HL-60(TB)) was 6.52 µM. The GI50 (HT29) was 3.61 µM, the GI50 (SF-268) was 11.1 µM and the GI50 (DU-145) was 12.9 µM. It also gave a GI50 (SW-620) of 16.9 µM, a GI50 (HS 578T) of 14.1 µM and a GI50 (K-562) of 3.59 µM. For the same compound, the GI50 (T-47D) was 14.8 µM, the GI50 (UO-31) was 12.6 µM and the GI50 (HCT-15) was 13.4 µM. It also gave a GI50 (A549/ATCC) of 12.2 µM, a GI50 (HCT-116) of 8.75 µM and a GI50 (CAKI-1) of 11.5 µM. The GI50 (SF-539) was 12.4 µM, the GI50 (UACC-62) was 16.2 µM and the GI50 (MALME-3M) was 11.7 µM. The GI50 (SNB-19) was 17.2 µM, the GI50 (BT-549) was 10.5 µM and the GI50 (NCI-H522) was 16 µM. For the same compound, the GI50 (SF-295) was 17.1 µM, the GI50 (SK-MEL-2) was 16.1 µM and the GI50 (MOLT-4) was 4.1 µM. It also gave a GI50 (KM12) of 15.4 µM, a GI50 (LOX IMVI) of 13.8 µM and a GI50 (HOP-62) of 14.5 µM. For the same compound, the GI50 (IGROV1) was 14.5 µM, the IC50 (B-RAF^V600E) was 0.314 ± 0.0229 µM and the IC50 (C-RAF) was 0.161 ± 0.00157 µM. It also gave a GI50 (MDA-MB-468) of 4.79 µM, a GI50 (PC-3) of 12 µM and a GI50 (MDA-MB-231/ATCC) of 12.1 µM.
